Source: PubChem BioAssay AID330 (DTP/NCI, 2004)
Where “and” joins values, the source holds several entries; their conditions need not be identical. Equal values may be shown once. Inconclusive results and toxic doses are left out.

Test system: P388 leukemia ip, CD2F1 mice, survival T/C
Experiment: NCI In Vivo Anticancer Drug Screen. Data for tumor model P388 Leukemia (intraperitoneal) in CD2F1 (CDF1) mice
Conditions: endpoint: median survival time, higher = longer survival
In short: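 Mice carrying the transplanted tumor received test compound or vehicle. Survival was recorded in each group, and the value is the treated-group measurement divided by that of the vehicle-treated control group.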

[1] = dose: 6.25 mg/kg/injection, schedule: Q01DX009 (ip), vehicle: saline with Tween-80
[2] = dose: 60.0 mg/kg/injection, schedule: Q01DX005 (ip), vehicle: saline with Tween-80
[3] = dose: 120.0 mg/kg/injection, schedule: Q01DX005 (ip), vehicle: saline with Tween-80
[4] = dose: 240.0 mg/kg/injection, schedule: Q01DX005 (ip), vehicle: saline with Tween-80
[5] = dose: 100.0 mg/kg/injection, schedule: Q01DX009 (ip), vehicle: saline with Tween-80
[6] = dose: 50.0 mg/kg/injection, schedule: Q01DX005 (ip), vehicle: saline with Tween-80
[7] = dose: 100.0 mg/kg/injection, schedule: Q01DX005 (ip), vehicle: saline with Tween-80
[8] = dose: 200.0 mg/kg/injection, schedule: Q01DX005 (ip), vehicle: saline with Tween-80
[9] = dose: 12.5 mg/kg/injection, schedule: Q01DX005 (ip), vehicle: saline with Tween-80
[10] = dose: 25.0 mg/kg/injection, schedule: Q01DX005 (ip), vehicle: saline with Tween-80

## C/C=C/C=C/C(O)CC(=O)N1OC2(C)c3ccccc3C1(C)c1ccccc12 (stereo unspecified)
dose: 100.0 mg/kg/injection, schedule: Q04DX003 (ip), vehicle: saline + alcohol
  T/C: 92 % of control
dose: 200.0 mg/kg/injection, schedule: Q04DX003 (ip), vehicle: saline + alcohol
  T/C: 92 % of control
dose: 400.0 mg/kg/injection, schedule: Q04DX003 (ip), vehicle: saline + alcohol
  T/C: 98 % of control

## NC(CSCc1ccc(N(CCCl)CCCl)cc1)C(=O)O (stereo unspecified)
dose: 4.0 mg/kg/injection, schedule: Q01DX009 (ip), vehicle: saline with Tween-80
  T/C: 172 % of control
dose: 6.0 mg/kg/injection, schedule: Q01DX009 (ip), vehicle: saline with Tween-80
  T/C: 218 % of control
[1]
  T/C: 245 % of control
dose: 9.0 mg/kg/injection, schedule: Q01DX009 (ip), vehicle: saline with Tween-80
  T/C: 159 % of control

## O=C(O)c1ccccc1C(=O)O
dose: 12.5 mg/kg/injection, schedule: Q01DX009 (ip), vehicle: water
  T/C: 102 % of control
dose: 25.0 mg/kg/injection, schedule: Q01DX009 (ip), vehicle: water
  T/C: 102 % of control
dose: 50.0 mg/kg/injection, schedule: Q01DX009 (ip), vehicle: water
  T/C: 98 % of control
dose: 100.0 mg/kg/injection, schedule: Q01DX009 (ip), vehicle: water
  T/C: 92 % of control
dose: 200.0 mg/kg/injection, schedule: Q01DX009 (ip), vehicle: water
  T/C: 88 % of control

## CCOC(=O)Nc1cccc([N+](=O)[O-])c1
dose: 100.0 mg/kg/injection, schedule: Q04DX003 (ip), vehicle: other
  T/C: 95 % of control
dose: 200.0 mg/kg/injection, schedule: Q04DX003 (ip), vehicle: other
  T/C: 95 % of control
dose: 400.0 mg/kg/injection, schedule: Q04DX003 (ip), vehicle: other
  T/C: 100 % of control

## Cc1cccc(C)c1NC(=O)C(=O)C(C#N)c1c(Cl)cccc1Cl (stereo unspecified)
[2]
  T/C: 102 % of control
[3]
  T/C: 102 % of control
[4]
  T/C: 104 % of control

## CCCCCCCCCCCCCCCCCCCCN1CCOCC1
dose: 12.5 mg/kg/injection, schedule: Q01DX009 (ip), vehicle: saline
  T/C: 102 % of control
dose: 25.0 mg/kg/injection, schedule: Q01DX009 (ip), vehicle: saline
  T/C: 107 % of control
dose: 50.0 mg/kg/injection, schedule: Q01DX009 (ip), vehicle: saline with Tween-80
  T/C: 92 % of control
dose: 50.0 mg/kg/injection, schedule: Q01DX009 (ip), vehicle: saline
  T/C: 101 % of control and 97 % of control
[5]
  T/C: 90 % of control
dose: 100.0 mg/kg/injection, schedule: Q01DX009 (ip), vehicle: saline
  T/C: 100 % of control
dose: 200.0 mg/kg/injection, schedule: Q01DX009 (ip), vehicle: saline
  T/C: 90 % of control

## CCOC(=O)COc1ccc(C2=C(c3ccccc3)C(C)(C)Oc3cc(OC)ccc32)cc1[N+](=O)[O-]
[6]
  T/C: 97 % of control
[7]
  T/C: 93 % of control
[8]
  T/C: 86 % of control

## CCCC1CC2=C(C(=O)c3c(OC)cccc3C2=O)C(O)(C(F)(F)F)O1 (stereo unspecified)
dose: 100.0 mg/kg/injection, schedule: Q01DX001 (ip), vehicle: Klucel (hydroxypropylcellulose) (HPC)
  T/C: 103 % of control
dose: 200.0 mg/kg/injection, schedule: Q01DX001 (ip), vehicle: Klucel (hydroxypropylcellulose) (HPC)
  T/C: 109 % of control
dose: 400.0 mg/kg/injection, schedule: Q01DX001 (ip), vehicle: Klucel (hydroxypropylcellulose) (HPC)
  T/C: 94 % of control

## C=C(C)[C@@H]1CCc2c(O)c(O)c(=O)cc(C)c2C1
dose: 1.75 mg/kg/injection, schedule: Q01DX009 (ip), vehicle: saline
  T/C: 108 % of control
dose: 3.5 mg/kg/injection, schedule: Q01DX009 (ip), vehicle: saline
  T/C: 112 % of control and 113 % of control
dose: 7.0 mg/kg/injection, schedule: Q01DX009 (ip), vehicle: saline
  T/C: 101 % of control and 121 % of control
dose: 14.0 mg/kg/injection, schedule: Q01DX009 (ip), vehicle: saline
  T/C: 110 % of control
dose: 28.0 mg/kg/injection, schedule: Q01DX009 (ip), vehicle: saline
  T/C: 121 % of control
dose: 56.0 mg/kg/injection, schedule: Q01DX009 (ip), vehicle: saline
  T/C: 119 % of control

## O=C(Nc1ccccc1)OCC(Cl)(Cl)Cl
[5]
  T/C: 100 % of control
dose: 200.0 mg/kg/injection, schedule: Q01DX009 (ip), vehicle: saline with Tween-80
  T/C: 100 % of control
dose: 400.0 mg/kg/injection, schedule: Q01DX009 (ip), vehicle: saline with Tween-80
  T/C: 119 % of control

## CC1C2CCC(C2)C1CNCC1C2CCC(C2)C1C (stereo unspecified)
[9]
  T/C: 100 % of control
[10]
  T/C: 103 % of control
[6]
  T/C: 101 % of control and 105 % of control

## CN=C1c2ccccc2C(=O)c2c1c(O)n(C)c2O
dose: 50.0 mg/kg/injection, schedule: Q01DX005 (ip), vehicle: Klucel (hydroxypropylcellulose) (HPC)
  T/C: 97 % of control
dose: 100.0 mg/kg/injection, schedule: Q01DX005 (ip), vehicle: Klucel (hydroxypropylcellulose) (HPC)
  T/C: 97 % of control
dose: 200.0 mg/kg/injection, schedule: Q01DX005 (ip), vehicle: Klucel (hydroxypropylcellulose) (HPC)
  T/C: 106 % of control

## COc1cc(C=C2C(=O)C=CC2=O)ccc1O
dose: 12.5 mg/kg/injection, schedule: Q04DX002 (ip), vehicle: saline
  T/C: 92 % of control
dose: 25.0 mg/kg/injection, schedule: Q04DX002 (ip), vehicle: saline
  T/C: 96 % of control

## O=[N+]([O-])/C=C/c1cc2ccc3ccccc3c2[nH]1
[2]
  T/C: 94 % of control
[3]
  T/C: 89 % of control
[4]
  T/C: 102 % of control

## NC(=O)c1ccc(N)nc1
dose: 0.63 mg/kg/injection, schedule: Q01DX009 (ip), vehicle: saline
  T/C: 104 % of control
dose: 1.25 mg/kg/injection, schedule: Q01DX009 (ip), vehicle: saline
  T/C: 100 % of control
dose: 1.56 mg/kg/injection, schedule: Q01DX009 (ip), vehicle: saline with Tween-80
  T/C: 110 % of control
dose: 2.5 mg/kg/injection, schedule: Q01DX009 (ip), vehicle: saline
  T/C: 121 % of control
dose: 3.12 mg/kg/injection, schedule: Q01DX009 (ip), vehicle: saline with Tween-80
  T/C: 122 % of control
[1]
  T/C: 117 % of control and 95 % of control
dose: 6.25 mg/kg/injection, schedule: Q04DX003 (ip), vehicle: saline with Tween-80
  T/C: 109 % of control

## O=c1[nH]c2cc([N+](=O)[O-])ccc2o1
dose: 50.0 mg/kg/injection, schedule: Q01DX009 (ip), vehicle: Klucel (hydroxypropylcellulose) (HPC)
  T/C: 102 % of control
dose: 100.0 mg/kg/injection, schedule: Q01DX009 (ip), vehicle: Klucel (hydroxypropylcellulose) (HPC)
  T/C: 105 % of control
dose: 200.0 mg/kg/injection, schedule: Q01DX009 (ip), vehicle: Klucel (hydroxypropylcellulose) (HPC)
  T/C: 105 % of control

## N#Cc1cnc2n(c1=N)CCCCC2
dose: 25.0 mg/kg/injection, schedule: Q04DX003 (ip), vehicle: Klucel (hydroxypropylcellulose) (HPC)
  T/C: 102 % of control
dose: 50.0 mg/kg/injection, schedule: Q04DX003 (ip), vehicle: Klucel (hydroxypropylcellulose) (HPC)
  T/C: 94 % of control
dose: 100.0 mg/kg/injection, schedule: Q04DX003 (ip), vehicle: Klucel (hydroxypropylcellulose) (HPC)
  T/C: 102 % of control

## Cc1cccc(N=Nc2c(-c3ccccc3)nn(C(N)=S)c2C)c1C
dose: 100.0 mg/kg/injection, schedule: Q04DX002 (ip), vehicle: Klucel (hydroxypropylcellulose) (HPC)
  T/C: 94 % of control
dose: 200.0 mg/kg/injection, schedule: Q04DX002 (ip), vehicle: Klucel (hydroxypropylcellulose) (HPC)
  T/C: 105 % of control
dose: 400.0 mg/kg/injection, schedule: Q04DX002 (ip), vehicle: Klucel (hydroxypropylcellulose) (HPC)
  T/C: 94 % of control

## CC1=NOC(=O)/C1=C/c1ccc2c(c1)OCO2
[6]
  T/C: 106 % of control
[7]
  T/C: 105 % of control
[8]
  T/C: 113 % of control

## COCc1ccc(C(N)C(=O)O)cc1 (stereo unspecified)
dose: 100.0 mg/kg/injection, schedule: Q01DX001 (ip), vehicle: saline with Tween-80
  T/C: 92 % of control
dose: 200.0 mg/kg/injection, schedule: Q01DX001 (ip), vehicle: saline with Tween-80
  T/C: 108 % of control

## CNC(C)Cc1ccccc1 (stereo unspecified) (tested in a mixture with another compound)
dose: 6.25 mg/kg/injection, schedule: Q01DX005 (ip), vehicle: saline with Tween-80
  T/C: 112 % of control
[9]
  T/C: 103 % of control
[10]
  T/C: 104 % of control
[6]
  T/C: 116 % of control

## Nc1ncnc2c1nnn2CC(O)CO (stereo unspecified)
dose: 60.0 mg/kg/injection, schedule: Q01DX005 (ip), vehicle: Klucel (hydroxypropylcellulose) (HPC)
  T/C: 99 % of control
dose: 120.0 mg/kg/injection, schedule: Q01DX005 (ip), vehicle: Klucel (hydroxypropylcellulose) (HPC)
  T/C: 92 % of control

## Cc1cn(CCCn2cnc3c(N)ncnc32)c(=O)[nH]c1=O
[2]
  T/C: 95 % of control
[3]
  T/C: 98 % of control
[4]
  T/C: 107 % of control
